How the values were obtained:
[1] = test system: factor IX deficient plasma; assay: Thrombelastography, factor IX deficient plasma; assay type: biochemical, human; conditions: 100 mmol CORM-2 vs control; FIX deficient plasma, 5 individuals
Protocol: Plasma deficient (<1% normal activity) in factor VIII (FVIII; 11 individuals), factor IX (FIX; 5 individuals), or factor VII (FVII; 4 individuals) was obtained from anonymous donors (George King Bio-Medical, Overland Park, Kans.) and was anticoagulated with sodium citrate. The final volume for all subsequently described plasma sample mixtures was […]. Sample composition consisted of […] of plasma, […] of tissue factor (0.1% final concentration in 0.9% NaCl; Diagnostica Stago, Asnieres, France), 3.6 mL of dimethyl sulfoxide (DMSO) or DMSO with CORM-2 ([…]; Sigma-Aldrich, St. Louis, Mo.), and 20 mL of […] CaCl2. […] (Motterlini et al. 2005). While CORM-2 decays slowly in DMSO, DMSO was added to the dry compound just prior to placement into the plasma mixture.
Plasma sample mixtures were placed in a disposable cup in a computer-controlled THROMBELASTOGRAPH® hemostasis system (Model 5000; Haemoscope Corp., Niles, Ill.), with addition of CaCl2 as the last step to initiate clotting. Data were collected until clot strength stabilized (maximum amplitude).
Statistical analyses. […] A paired student's t-test was used to analyze the effects of CORM-2 exposure in FVIII deficient individuals. The results of the FIX and FVII deficient groups were presented but not statistically analyzed secondary to the small number of individuals in each cohort. […] Statistical analyses and graphical representation of the data were generated with commercially available software (SigmaPlot 11.0; Systat Software Inc., San Jose, Calif.; CorelDRAW 12.0; Corel Corp., Ottawa, Ontario, Canada). A P value of less than 0.05 was considered significant.

[2] = aqueous solution pH=7.4, 37° C.; cited from earlier work
pooled normal plasma = assay: Dilution-response thrombelastography in plasma diluted with NS or VOL (no tPA); assay type: biochemical, human
Text: Plasma and volume expanders. Pooled normal plasma (George King Bio-Medical, Overland Park, Kans.) anticoagulated with sodium citrate was utilized for experimentation. […] The volume expanders tested were 0.9% NaCl (Abbott Laboratories, North Chicago, Ill.; also designated as NS) and 6% hydroxylethyl starch (HES) in 0.9% NaCl (VOLUVEN®, average molecular weight 130 kDa, 0.4 degree of substitution, C2:C6 ratio of substitution 11.2; Fresenius Kabi, Bad Homburg, Germany; also referred to as VOL).
Plasma sample composition of dilution-response experiments. The final volume for all subsequently described plasma sample mixtures was 359.6 μL. Sample composition consisted of 326 μL of plasma/volume expander, 10 μL of tissue factor reagent (0.1% final concentration in dH2O; Instrumentation Laboratory, Lexington, Mass.), 3.6 μL of dimethyl sulfoxide (DMSO) or DMSO with CORM-2 (100 μM final concentration; Sigma-Aldrich, St. Louis, Mo.), and 20 μL of 200 mM CaCl2. Tissue factor stock was kept on ice prior to use and was remade every two hours. […] DMSO was added to dry CORM-2 just prior to placement into the plasma mixture. Plasma was diluted 0%, 20%, 30%, 40% or 50% with NS or VOL (n=4 per condition).
Clot Lifespan Model (CLSM) Analyses. Plasma sample mixtures were placed in a disposable cup in a computer-controlled THROMBELASTOGRAPH® hemostasis system (Model 5000, Haemoscope Corp., Niles, Ill.), with addition of CaCl2 as the last step to initiate clotting. In the first series of experiments, no tPA was added, so data were collected until clot strength (maximum amplitude) was stable. In the second series of experiments which in tPA was added, data were collected until clot lysis time occurred. […] Additional elastic modulus-based parameters were determined and the nomenclature used to describe these phenomena is as follows: Time to maximum rate of thrombus generation (TMRTG): This is the time interval (sec) observed prior to maximum speed of clot growth. Maximum rate of thrombus generation (MRTG): This is the maximum velocity of clot growth observed (dynes/cm^2/sec). Total Thrombus Generation (TTG): This is the total area under the velocity curve during clot growth (dynes/cm^2), representing the amount of clot strength generated during clot growth. Time to maximum rate of lysis (TMRL): This is the time interval (sec) measured from the time of maximum strength to the time when the velocity of clot disintegration is maximal. Maximum Rate of Lysis (MRL): This is the maximum velocity of clot disintegration observed (−dynes/cm^2/sec). Area of Clot Lysis (ACL): This is the total area under the velocity curve during clot disintegration (−dynes/cm^2), representing the amount of clot strength lost during clot disintegration. As this model involves complete fibrinolysis, TTG is equivalent to ACL, so ACL was not presented as it provides no additional information.
Statistical Analyses. Data obtained from pooled normal plasma not exposed to tPA were graphically represented with commercially available software (SigmaPlot 11.0, Systat Software, Inc., San Jose, Calif.), and kinetic modeling of thrombelastographic data performed with the same software. Analyses of the effects of hemodilution and CORM-2 on CLSM variables obtained from pooled normal plasma were conducted using Kruskal-Wallis one way analysis of variance with Student-Newman-Keuls post-hoc test. […] These analyses were conducted with the same commercially available software (SigmaPlot 11.0). A P value of <0.05 was considered significant.

[3] = 20% dilution with VOL + 100 μM CORM-2, no tPA
[4] = 30% dilution with VOL + 100 μM CORM-2, no tPA
[5] = 40% dilution with VOL + 100 μM CORM-2, no tPA
[6] = 50% dilution with VOL + 100 μM CORM-2, no tPA
[7] = undiluted samples, no tPA, 100 μM CORM-2

[C-]#[O+].[C-]#[O+].[C-]#[O+].[C-]#[O+].[C-]#[O+].[C-]#[O+].[Cl][Ru][Cl].[Cl][Ru][Cl] [CORM-2, tricarbonyldichlororuthenium (II) dimer]
effect on MRTG (speed of clot formation) [1]: four of five individuals had an increase in the speed of clot formation
effect on TMRTG [1]: decreased the TMRTG value of all five individual plasma samples tested
effect on TTG [1]: All individual plasma samples demonstrated an increase in TTG
CO released from every mole of CORM-2 [2]: 0.75 mol
MRTG, % of undiluted samples (pooled normal plasma; [3]): 93%
TTG, % of undiluted samples (pooled normal plasma; [3]): 76%
MRTG, % of undiluted samples (pooled normal plasma; [4]): 67%
TTG, % of undiluted samples (pooled normal plasma; [4]): 50%
MRTG, % of undiluted samples (pooled normal plasma; [5]): 60%
TTG, % of undiluted samples (pooled normal plasma; [5]): 45%
MRTG, % of undiluted samples (pooled normal plasma; [6]): 22%
TTG, % of undiluted samples (pooled normal plasma; [6]): 17%
increase in MRTG with CORM-2 exposure (pooled normal plasma; samples diluted 50% with NS, no tPA, 100 μM CORM-2): 12%
MRTG greater than matched diluted samples not exposed to CORM-2 (pooled normal plasma; samples diluted with NS (except 50%), no tPA, 100 μM CORM-2): 40-50%
increase in MRTG (pooled normal plasma; [7]): 75%
increase in TTG (pooled normal plasma; [7]): 59%

From patent US8697747B2, “Enhancing coagulation or reducing fibrinolysis” (THe UAB Research Foundation, priority 2009, dated 2014)
